Source: patent US9090593B2, “Bicyclic compounds as Pim inhibitors” (AMGEN INC., priority 2010, dated 2015)

Key:
[1] = biological target: T1, Pim-2 stably transfected into the U2OS human osteogenic sarcoma line (Homo sapiens, UniProt Q9P1W9); assay: Pim cell assay, phospho-BAD normalized against total BAD, U2OS stably transfected with Pim-2; type: cell-based; details: U2OS stably transfected with Pim-2; phospho-BAD normalized against total BAD; 29 min incubation; read-out: Pim2_Cell_IC50_
T1 construct: expressed in transfected cells; host or cells: U2OS human osteogenic sarcoma line
Experimental: (§1) The cell lines used in the assay were generated by the stable transfection of either Pim-1 or Pim-2 into the U2OS human osteogenic sarcoma line. The assay for determination of the Pim activity in the engineered U2OS cell lines measures levels of phospho-BAD normalized against total BAD protein levels. It was conducted as follows:
(§2) The adherent cells were dissociated from the flasks using non-enzymatic cell dissociation solution (Sigma # C5914). […] The cells were then incubated overnight at 37° C., 5% CO2.
(§3) In addition to the 10-point dosing curve of the test compound, DMSO alone was run as the high control.
(§4) This dilution in DMSO was then diluted again into cell growth medium. Aliquots (12 uL) of the compound diluted in growth medium were then transferred to the appropriate wells of the 96-well plates containing cells to yield a final DMSO concentration of 0.3%.
(§5) The cell plates containing lysis buffer were then immediately stored at −70° C.
(§6) These prepared lysates were then assayed for phospho and total BAD according to the manufacturer's protocols (Meso Scale Diagnostics, Cat# K15103C-3 & # K15103D-3). The plates were read on the MSD Sector Imager 6000, and results were calculated according to the assay protocols ((% Phosphoprotein=((2×Phospho signal)/(Phospho signal+Total signal))×100)).

[2] = biological target: T2, full length recombinant Pim-1 protein (Homo sapiens, UniProt P11309); assay: Pim-1 enzyme assay (HTRF, phosphorylation of biotinylated-BAD (S112) peptide); type: biochemical; details: read-out: Pim_1_IC50
T2 construct: by full length recombinant Pim-1, Pim-2, or Pim-3 protein; hexahistidine tag followed by a thrombin cleavage site (N); made in house; host or cells: Sf9 (baculovirus) or E. coli (pET28)
Summary of the method: (§7)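 Recombinant full-length Pim-1 or Pim-2 was incubated with biotinylated BAD (S112) peptide in pH 7.0 Hepes buffer with BSA and DTT. After an EDTA stop, phosphopeptide was quantified by time-resolved FRET between a europium antibody and streptavidin-APC, and IC50 values came from 4-parameter logistic curves.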

[3] = biological target: T3, Pim-1 stably transfected into the U2OS human osteogenic sarcoma line (Homo sapiens, UniProt P11309); assay: Pim cell assay, phospho-BAD normalized against total BAD, U2OS stably transfected with Pim-1; type: cell-based; details: U2OS stably transfected with Pim-1; phospho-BAD normalized against total BAD; 29 min incubation; read-out: Pim1_Cell_IC50_
T3 construct: expressed in transfected cells; host or cells: U2OS human osteogenic sarcoma line
Experimental: as §1, §2, §3, §4, §5, §6

[4] = biological target: T4, full length recombinant Pim-2 protein (Homo sapiens, UniProt Q9P1W9); assay: Pim-2 enzyme assay (HTRF, phosphorylation of biotinylated-BAD (S112) peptide); type: biochemical; details: read-out: Pim2_IC50
T4 construct: by full length recombinant Pim-1, Pim-2, or Pim-3 protein; hexahistidine tag followed by a thrombin cleavage site (N); made in house; host or cells: Sf9 (baculovirus) or E. coli (pET28)
Summary of the method: as §7

T1 sequence (Q9P1W9 whole entry): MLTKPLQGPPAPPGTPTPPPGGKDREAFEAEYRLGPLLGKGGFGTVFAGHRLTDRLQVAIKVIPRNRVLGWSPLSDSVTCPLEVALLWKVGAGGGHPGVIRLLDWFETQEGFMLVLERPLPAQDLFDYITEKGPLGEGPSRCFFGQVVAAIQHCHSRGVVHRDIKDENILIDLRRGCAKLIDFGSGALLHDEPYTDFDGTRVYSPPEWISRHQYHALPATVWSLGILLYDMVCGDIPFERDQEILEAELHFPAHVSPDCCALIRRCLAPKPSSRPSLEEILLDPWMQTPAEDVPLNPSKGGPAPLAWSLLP
T4 sequence (Q9P1W9 whole entry): as above
T3 sequence (P11309 whole entry): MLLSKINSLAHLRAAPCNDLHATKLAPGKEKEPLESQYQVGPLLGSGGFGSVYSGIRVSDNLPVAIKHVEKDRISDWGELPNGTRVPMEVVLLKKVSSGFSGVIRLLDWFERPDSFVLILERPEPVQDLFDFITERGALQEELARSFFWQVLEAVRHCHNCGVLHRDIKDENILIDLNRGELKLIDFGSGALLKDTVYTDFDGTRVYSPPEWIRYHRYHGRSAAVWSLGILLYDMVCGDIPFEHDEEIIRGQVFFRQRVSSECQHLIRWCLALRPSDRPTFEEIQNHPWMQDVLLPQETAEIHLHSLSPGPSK
T2 sequence (P11309 whole entry): as above

| Structure (SMILES) | IC50 [1] | IC50 [2] | IC50 [3] | IC50 [4] |
| --- | --- | --- | --- | --- |
| N#CC1(c2cccc(-c3ccc4[nH]cc(-c5cncc(O[C@@H]6CCCNC6)n5)c4c3)c2)CCC1 [Example 350] | > 15800 nM | 6 nM | 2360 nM | 193 nM |
| CC(C)Oc1cccc(-c2ccc3[nH]cc(-c4cncc(O[C@@H]5CCCNC5)n4)c3c2)c1 [Example 360] | > 15800 nM | 8 nM | 2720 nM | 94 nM |
| c1cc(-c2ccc3[nH]nc(-c4cncc(O[C@@H]5CCCNC5)n4)c3c2)nc(C2CC2)n1 [Example 361] | > 31600 nM | 12 nM | 2070 nM | 71 nM |
| COc1cncc(-c2n[nH]c3ccc(-c4cncc(C5CC5)n4)cc23)n1 [Example 379] | > 31600 nM | 2 nM | 657 nM | 16 nM |
| CC(C)Oc1cncc(-c2n[nH]c3ccc(-c4cncc(C5CC5)n4)cc23)n1 [Example 381] | > 31600 nM | 4 nM | 772 nM | 37 nM |
| FCCOc1cncc(-c2n[nH]c3ccc(-c4cncc(C5CC5)n4)cc23)n1 [Example 384] | > 31600 nM | 4 nM | 207 nM | 27 nM |
| Nc1cncc(-c2ccc3[nH]nc(-c4cncc(OCCF)n4)c3c2)n1 [Example 386, 6-(3-(6-(2-fluoroethoxy)-2-pyrazinyl)-1H-indazol-5-yl)-2-pyrazinamine] | > 31600 nM | 6 nM | 61 nM | 11 nM |
| Cc1ccccc1-c1ccc2[nH]nc(-c3cncc(O[C@H]4CNCCC45CC5)n3)c2c1 [Example 404] | > 15800 nM | 9 nM | 2580 nM | 19 nM |
| FC(F)(F)c1ccccc1-c1ccc2[nH]nc(-c3cncc(O[C@H]4CNCCC45CC5)n3)c2c1 [Example 407] | > 15800 nM | 20 nM | 2070 nM | 51 nM |
| NC1CCN(c2cc(O)nc(-c3n[nH]c4ccc(-c5c(F)cccc5F)cc34)n2)CC1 [Example 482] | > 31600 nM | 1 nM | 1200 nM | 4 nM |
| Oc1cc(-c2c[nH]c3ccc(-c4c(F)cccc4F)cc23)nc(N2CCOCC2)n1 [Example 483] | > 31600 nM | 4 nM | 219 nM | 32 nM |
| COC(=O)c1ccc2[nH]nc(-c3ccnc(N[C@@H]4CCCNC4)n3)c2c1 [Example 490] | > 15800 nM | 13 nM | 522 nM | 54 nM |
| COc1cc(-c2n[nH]c3ccc(-c4c(F)cccc4F)cc23)nc(N2CCC(N)CC2)n1 [Example 506] | > 31600 nM | 15 nM | 3740 nM | 33 nM |
| NC1CCN(c2cncc(-c3n[nH]c4ccc(-c5nccc6[nH]ccc56)cc34)n2)CC1 [Example 507] | > 31600 nM | 3 nM | > 31600 nM | 65 nM |
| CC(C)Oc1cncc(-c2ccc3[nH]cc(-c4nnc(N5CCC[C@H](N)C5)o4)c3c2)n1 [Example 510] | > 31600 nM | 17 nM | 1010 nM | 78 nM |
| Oc1cc(N[C@@H]2CCCNC2)nc(-c2c[nH]c3ccc(-c4c(F)cccc4F)cc23)n1 [Example 515] | > 31600 nM | 3 nM | 12000 nM | 7 nM |
| NC1CCN(c2ccnc(-c3n[nH]c4ccc(-c5c(F)cccc5F)cc34)n2)CC1 [Example 516] | > 31600 nM | 6 nM | 861 nM | 142 nM |
| NC1CCN(c2cncc(-c3c[nH]c4ccc(-c5cncc(C6CC6)n5)cc34)n2)CC1 [Example 517] | > 31600 nM | 2 nM | 176 nM | 65 nM |

More lines, now with the values ahead:

| IC50 [1] | IC50 [2] | IC50 [3] | IC50 [4] | Structure (SMILES) |
| --- | --- | --- | --- | --- |
| > 15800 nM | 9 nM | 3610 nM | 68 nM | FC(F)Oc1cccc(-c2ccc3[nH]cc(-c4cncc(O[C@@H]5CCCNC5)n4)c3c2)c1 [Example 344] |
| > 15800 nM | 20 nM | 729 nM | 157 nM | COc1ccc(-c2ccc3[nH]cc(-c4cncc(O[C@@H]5CCCNC5)n4)c3c2)cc1OC [Example 345] |
| 9690 nM | 2 nM | 273 nM | 16 nM | CN1CCOc2cc(-c3ccc4[nH]cc(-c5cncc(O[C@@H]6CCCNC6)n5)c4c3)ccc21 [Example 347] |
| 4150 nM | 3 nM | 864 nM | 7 nM | CC(C)NC(=O)c1ccc(F)c(-c2ccc3[nH]nc(-c4cncc(N[C@@H]5CCCNC5)n4)c3c2)c1 [Example 362] |
| 8800 nM | 14 nM | 868 nM | 27 nM | CC(O)c1cccc(-c2ccc3[nH]nc(-c4cncc(O[C@@H]5CCCNC5)n4)c3c2)c1 (stereo partly shown) [Example 367] |
| 1770 nM | 6 nM | 23 nM | 37 nM | CC(C)Nc1cncc(-c2n[nH]c3ccc(-c4cncc(C5CC5)n4)cc23)n1 [Example 368, 6-(5-(6-cyclopropyl-2-pyrazinyl)-1H-indazol-3-yl)-N-(1-methylethyl)-2-pyrazinamine] |
| > 10000 nM | 1 nM | 200 nM | 7 nM | c1cc2[nH]nc(-c3cncc(OC4CCNCC45CC5)n3)c2cc1-c1cncc(C2CC2)n1 (stereo not shown) [Example 372] |
| 3370 nM | 1 nM | 130 nM | 5 nM | c1cc2[nH]nc(-c3cncc(O[C@@H]4CCNCC45CC5)n3)c2cc1-c1cncc(C2CC2)n1 [Example 373, 3-(6-((8R)-5-azaspiro[2.5]oct-8-yloxy)-2-pyrazinyl)-5-(6-cyclopropyl-2-pyrazinyl)-1H-indazole] |
| 8090 nM | 1 nM | 312 nM | 17 nM | c1cc2[nH]nc(-c3cncc(O[C@H]4CCNCC45CC5)n3)c2cc1-c1cncc(C2CC2)n1 [Example 374, 3-(6-((8S)-5-azaspiro[2.5]oct-8-yloxy)-2-pyrazinyl)-5-(6-cyclopropyl-2-pyrazinyl)-1H-indazole] |
| 21800 nM | 1 nM | 44 nM | 10 nM | COc1cncc(-c2n[nH]c3ccc(-c4cncc(NC5CC5)n4)cc23)n1 [Example 383, N-cyclopropyl-6-(3-(6-methoxy-2-pyrazinyl)-1H-indazol-5-yl)-2-pyrazinamine] |
| > 10000 nM | 2 nM | 114 nM | 12 nM | c1cc2[nH]nc(-c3cncc(NC4CC4)n3)c2cc1-c1cncc(C2CC2)n1 [Example 391, N-cyclopropyl-6-(5-(6-cyclopropyl-2-pyrazinyl)-1H-indazol-3-yl)-2-pyrazinamine] |
| > 10000 nM | 13 nM | 212 nM | 66 nM | CC(C)(O)CNc1cncc(-c2n[nH]c3ccc(-c4cncc(C5CC5)n4)cc23)n1 [Example 392] |
| 8650 nM | 17 nM | 1130 nM | 25 nM | c1cc2[nH]nc(-c3cncc(O[C@H]4CNCCC45CC5)n3)c2cc1N1CCOCC1 [Example 400] |
| 31700 nM | 19 nM | 1150 nM | 50 nM | Brc1ccc2[nH]nc(-c3cncc(O[C@@H]4CNCCC45CC5)n3)c2c1 [Example 421] |
| 8790 nM | 2 nM | 204 nM | 8 nM | CC(C)OC(=O)c1ccc2[nH]nc(-c3cncc(N4CCC(N)CC4)n3)c2c1 [Example 470] |
| 9630 nM | 4 nM | 221 nM | 44 nM | COC(=O)c1ccc2[nH]nc(-c3cncc(N[C@@H]4CCCNC4)n3)c2c1 [Example 473] |
| 14600 nM | 2 nM | 108 nM | 52 nM | CC(C)OC(=O)c1ccc2[nH]nc(-c3cncc(N[C@@H]4CCCNC4)n3)c2c1 [Example 474, 1-methylethyl 3-(6-((3R)-3-piperidinylamino)-2-pyrazinyl)-1H-indazole-5-carboxylate] |
| 31600 nM | 18 nM | 588 nM | 144 nM | COC(=O)c1ccc2[nH]nc(-c3cncc(O[C@@H]4CCCNC4)n3)c2c1 [Example 476] |
| 20300 nM | 8 nM | 348 nM | 126 nM | CC(C)OC(=O)c1ccc2[nH]nc(-c3cncc(O[C@@H]4CCCNC4)n3)c2c1 [Example 477] |
